Drawing on patent US20100234395A1, “UREIDE DERIVATIVE AND PHARMACEUTICAL APPLICATION THEREOF” (TORAY INDUSTRIES, INC., priority 2006, published 2010), this text covers ED50 and IC50 for 22 compounds.

One test relates to ddY mice. Description: Acetic acid writhing test in mice (analgesic effects). The format is in vivo. The settings on record: Mus musculus. Here is the method: ddY mice were grown for at least 16 hours under fasting conditions while free water intake was allowed, and a solution of the test compound or a solvent was orally administered thereto (0.1 ml/10 g). As a solvent for a solution of the test compound, dimethyl sulfoxide (DMSO):Tween 80:27% hydroxypropyl-P-cyclodextrin (hereafter abbreviated to “HP-β-CD”) (1:1:8) or 27% HP-β-CD was used. A solution of 0.6% acetic acid (0.1 ml/10 g) was administered intraperitoneally 45 minutes after administration to induce a writhing reaction (i.e., a movement of stretching or arching the body). The number of the writhing reactions that had occurred for the period from 10 minutes after administration of the acetic acid solution to 10 minutes thereafter was counted, and the number of times was designated as an indicator of pain. The number of times of reactions in the group to which a solvent had been administered was designated as 100%, and the concentration of the test compound that had inhibited 50% of such reaction was designated as the ED50 value.
The compound of Reference Example 78 is disclosed in the claims of JP Patent Publication (kohyo) No. 2006-517535 A, the compounds of Reference Examples 93 and 199 are disclosed in the claims of JP Patent No. 3003148, and the compound of Reference Example 103 is disclosed in the claims of JP Patent Publication (kohyo) No. 2006-514095 A. Thus, these compounds were compared with the compounds of the present invention having similar structures in terms of analgesic effects with oral administration (Table 4) or subcutaneous administration (Table 5). Dimethyl sulfoxide (DMSO):Tween 80:27% HP-β-CD (1:1:8) or 27% HP-β-CD was used as a solvent for the test compound.
For orientation: Writhing tests count abdominal constrictions after an irritant is injected.

The target in another test is T1, COX-1 (Homo sapiens, UniProt P23219).
T1 construct: Human blood that had been sampled with the use of heparin (19 units/ml) was used; from tissue; host or cells: human whole blood (heparinised)
Description: Activity of inhibiting COX-1 in human blood (thromboxane B2 after ionomycin). The format is cell-based. The settings on record: thromboxane B2 production. Here is the method:
Human blood that had been sampled with the use of heparin (19 units/ml) was used. Blood was fractionated to reaction tubes in amounts of 500 μl, the test compound or solvent was added thereto, and the resultants were incubated at 37° C. for 60 minutes. Dimethyl sulfoxide (DMSO) was used as a solvent for the test compound. Thereafter, ionomycin (30 nM) was added, and the reaction was allowed to proceed for 30 minutes. After the completion of the reaction, the supernatant (blood plasma) was recovered via centrifugation at 4° C., and the amount of thromboxane B2 in the plasma was quantified using a kit (519031, Cayman Chemical). The amount of thromboxane B2 produced via the addition of ionomycin was designated as 100%, and the concentration of the test compound that inhibits 50% of such reaction was represented by the IC50 value.

A further test addresses T2, COX-2 (Homo sapiens, UniProt P35354).
T2 construct: Human blood that had been sampled with the use of heparin (19 units/ml) was used; from tissue; host or cells: human whole blood (heparinised), aspirin-pretreated, stimulated with lipopolysaccharide
T2 sequence (P35354 18-604): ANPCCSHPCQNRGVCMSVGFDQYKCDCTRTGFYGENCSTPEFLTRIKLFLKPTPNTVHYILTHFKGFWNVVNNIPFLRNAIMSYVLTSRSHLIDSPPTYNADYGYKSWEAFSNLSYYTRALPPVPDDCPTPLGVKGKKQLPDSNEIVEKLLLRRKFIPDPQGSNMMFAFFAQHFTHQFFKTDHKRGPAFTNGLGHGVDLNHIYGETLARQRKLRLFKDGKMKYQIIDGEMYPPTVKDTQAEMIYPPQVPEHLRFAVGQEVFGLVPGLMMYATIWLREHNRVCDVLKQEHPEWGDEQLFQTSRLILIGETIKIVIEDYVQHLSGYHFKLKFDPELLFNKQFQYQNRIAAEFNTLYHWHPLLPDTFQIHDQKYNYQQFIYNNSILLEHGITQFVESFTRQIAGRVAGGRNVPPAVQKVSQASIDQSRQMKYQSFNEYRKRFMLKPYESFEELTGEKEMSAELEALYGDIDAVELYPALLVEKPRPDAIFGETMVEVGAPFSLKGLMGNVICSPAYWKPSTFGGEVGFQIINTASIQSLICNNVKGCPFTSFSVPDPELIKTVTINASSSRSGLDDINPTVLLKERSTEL
Description: Activity of inhibiting COX-2 in human blood (prostaglandin E2 after lipopolysaccharide). The format is cell-based. The settings on record: prostaglandin E2 production. Here is the method:
Human blood that had been sampled with the use of heparin (19 units/ml) was used. Blood was fractionated to reaction tubes in amounts of 500 μl, aspirin (12 μg/ml) was added thereto, and the resultants were incubated at 37° C. for 6 hours. Thereafter, the test compound or solvent, and lipopolysaccharide (10 μg/ml) were added, and the reaction was allowed to proceed for 18 hours. After the completion of the reaction, the supernatant (blood plasma) was recovered via centrifugation at 4° C., and the amount of prostaglandin E2 in the plasma was quantified using a kit (514010, Cayman Chemical). Dimethyl sulfoxide (DMSO) was used as a solvent for the test compound. The amount of prostaglandin E2 produced via the addition of lipopolysaccharide was designated as 100%, and the concentration of the test compound that inhibits 50% of such reaction was represented by the IC50 value.

Where [1] appears, read: oral administration 45 minutes before 0.6% acetic acid i.p., 50% inhibition of writhing reactions, read-out: ED50 (mg/kg)[90% confidence limit].
[2] abbreviates: sc, Table 5, subcutaneous administration, read-out: ED50 (mg/kg) [90% confidence limit].

Structures are written as SMILES. Where two headings read alike, the source gives them in different places.

T1 sequence (P23219 24-599): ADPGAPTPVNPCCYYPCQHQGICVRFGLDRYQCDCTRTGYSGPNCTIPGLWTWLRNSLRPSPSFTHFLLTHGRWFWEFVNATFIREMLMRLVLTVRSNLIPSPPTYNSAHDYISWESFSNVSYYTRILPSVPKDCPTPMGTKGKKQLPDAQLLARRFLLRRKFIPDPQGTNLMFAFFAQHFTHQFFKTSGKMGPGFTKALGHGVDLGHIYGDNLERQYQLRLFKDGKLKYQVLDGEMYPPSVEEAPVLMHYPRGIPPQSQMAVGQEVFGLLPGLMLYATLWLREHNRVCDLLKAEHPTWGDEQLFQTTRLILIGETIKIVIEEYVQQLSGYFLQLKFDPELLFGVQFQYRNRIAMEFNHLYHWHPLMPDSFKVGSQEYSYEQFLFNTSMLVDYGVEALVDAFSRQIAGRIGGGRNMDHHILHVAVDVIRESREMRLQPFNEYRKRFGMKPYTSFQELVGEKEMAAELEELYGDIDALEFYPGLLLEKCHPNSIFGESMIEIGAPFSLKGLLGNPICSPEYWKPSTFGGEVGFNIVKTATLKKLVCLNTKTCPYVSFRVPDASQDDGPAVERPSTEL

On to `CN(O)C(=O)N1CCC(c2nc(-c3ccc(F)cc3)c(-c3ccccc3)o2)CC1` [Example 13, 4-(4-(4-Fluorophenyl)-5-phenyloxazol-2-yl)-1-(N-hydroxy-N-methylcarbamoyl)piperidine], for which the ED50 in the test with ddY mice (setting [1]) stood at 2.62 mg/kg.

On to `COc1ccc(-c2nc(C3CCN(C(=O)N(O)C(C)C)CC3)oc2-c2ccc(OC)cc2)cc1` [Example 15, 4-(4,5-Bis(4-methoxyphenyl)oxazol-2-yl)-1-(N-isopropyl-N-hydroxycarbamoyl)piperidine], for which the IC50 against COX-1 is below 0.1 µM; at COX-2, above 10 µM. On the same counts, the results for `COc1ccc(-c2nc(C3CCN(C(=O)N(O)C4CCCCC4)CC3)oc2-c2ccc(OC)cc2)cc1` [Example 16, 4-(4,5-Bis(4-methoxyphenyl)oxazol-2-yl)-1-(N-cyclohexyl-N-hydroxycarbamoyl)piperidine] are below 0.1 µM and above 10 µM. In the case of `CCN(O)C(=O)N1CCC(c2nc(-c3ccc(OC)cc3)c(-c3ccc(OC)cc3)o2)CC1` [Example 19, 4-(4,5-Bis(4-methoxyphenyl)oxazol-2-yl)-1-(N-hydroxy-N-ethylcarbamoyl)piperidine], the values for the half-maximal inhibitory concentration (IC50) against COX-1 and against COX-2 were below 0.1 µM and above 10 µM, respectively. On the same counts, the results for `COc1ccc(-c2nc(C3CCN(C(=O)N(C)OC)CC3)oc2-c2ccc(OC)cc2)cc1` [Example 24, 4-(4,5-Bis(4-methoxyphenyl)oxazol-2-yl)-1-(N-methoxy-N-methylcarbamoyl)piperidine] are below 0.1 µM and above 10 µM. The corresponding values for `COc1ccc(-c2cc(C3CCN(C(=O)N(C)O)CC3)[nH]c2-c2ccc(OC)cc2)cc1` [Example 34, 4-(4,5-Bis(4-methoxyphenyl)-1H-pyrrol-2-yl)-1-(N-hydroxy-N-methylcarbamoyl)piperidine] are below 0.1 µM and above 10 µM. The corresponding values for `COc1ccc(-c2cc(C3CCN(C(=O)N(C)O)CC3)oc2-c2ccc(OC)cc2)cc1` [Example 38, 4-(4,5-bis(4-methoxyphenyl)furan-2-yl)-1-(N-hydroxy-N-methylcarbamoyl)piperidine] are below 0.1 µM and above 10 µM. Turning to `COc1ccc(-c2cc(C3CCN(C(=O)N(C)O)CC3)sc2-c2ccc(OC)cc2)cc1` [Example 39, 4-(4,5-Bis(4-methoxyphenyl)thiophen-2-yl)-1-(N-hydroxy-N-methylcarbamoyl)piperidine], the IC50 against COX-1 is below 0.1 µM; against COX-2 it was above 10 µM.

For `COc1ccc(-c2nc(C3(C)CCN(C(=O)N(C)O)CC3)oc2-c2ccc(OC)cc2)cc1` [Example 42, 4-(4,5-Bis(4-methoxyphenyl)oxazol-2-yl)-1-(N-hydroxy-N-methylcarbamoyl)-4-methylpiperidine], the IC50 is below 0.1 µM against COX-1 and above 10 µM against COX-2. For `COc1ccc(-c2nc(C3(c4ccccc4)CCN(C(=O)N(C)O)CC3)oc2-c2ccc(OC)cc2)cc1` [Example 48, 4-(4,5-Bis(4-methoxyphenyl)oxazol-2-yl)-(N-hydroxy-N-methylcarbamoyl)-4-phenylpiperidine], the IC50 against COX-1 was below 0.1 µM; against COX-2, above 10 µM. On the same counts, the results for `COc1ccc(-c2nc(C3(C)CCN(C(=O)N(C)O)CC3)sc2-c2ccc(OC)cc2)cc1` [Example 55, 4-(4,5-Bis(4-methoxyphenyl)thiazol-2-yl)-1-(N-hydroxy-N-methylcarbamoyl)-4-methylpiperidine] are below 0.1 µM and above 10 µM. For the compound `COc1ccc(-c2nc(N3CCN(C(=O)N(C)O)CC3)sc2-c2ccc(OC)cc2)cc1` [Example 57, 4-(4,5-Bis(4-methoxyphenyl)thiazol-2-yl)-1-(N-hydroxy-N-methylcarbamoyl)piperazine], the ED50 with ddY mice (setting [1]) was 9.79 mg/kg. Take `COc1ccc(-c2nc(C3CCN(C(=O)N(O)C(C)C)CC3)sc2-c2ccc(OC)cc2)cc1` [Example 60, 4-(4,5-Bis(4-methoxyphenyl)thiazol-2-yl)-1-(N-hydroxy-N-isopropylcarbamoyl)piperidine]: the IC50 is below 0.1 µM on COX-1 and above 10 µM on COX-2. For the compound `COc1ccc(-c2nc(C3CCN(C(=O)N(C)OC)CC3)sc2-c2ccc(OC)cc2)cc1` [Example 61, 4-(4,5-Bis(4-methoxyphenyl)thiazol-2-yl)-1-(N-methoxy-N-methylcarbamoyl)piperidine], the figures for the half-maximal inhibitory concentration (IC50) at COX-1 and against COX-2 were below 0.1 µM and above 10 µM, respectively. For `COc1ccc(-n2nc(C3CCN(C(=O)N(C)O)CC3)cc2-c2cccnc2OC)cc1` [Example 67, 4-(1-(4-Methoxyphenyl)-5-(2-methoxypyridin-3-yl)-1H-pyrazol-3-yl)-1-(N-hydroxy-N-methylcarbamoyl)piperidine], the ED50 in the test with ddY mice (setting [1]) turned out to be 2.51 mg/kg.

In the case of `COc1ccc(-c2cc(C3CC4CCC(C3)N4C(=O)N(C)O)nn2-c2ccc(OC)cc2)cc1` (stereo not shown) [Example 68, 3-(1,5-Bis(4-methoxyphenyl)-1H-pyrazol-3-yl)-8-(N-hydroxy-N-methylcarbamoyl)-8-azabicyclo[3.2.1]octane], the results for the IC50 against COX-1 and on COX-2 were below 0.1 µM and above 10 µM, respectively. The corresponding values for `CCCC1(c2nc(-c3ccc(OC)cc3)c(-c3ccc(OC)cc3)o2)CCN(C(=O)N(C)O)CC1` [Example 74, 4-(1,5-Bis(4-methoxyphenyl)oxazol-2-yl)-4-propyl-1-(N-hydroxy-N-methylcarbamoyl)piperidine] are below 0.1 µM and above 10 µM.

Turning to `COc1ccc(-c2nc(C3CCN(C(=O)N(C)O)CC3)oc2-c2ccc(OCCO)cc2)cc1` [Example 77], the IC50 was below 0.1 µM against COX-1 and above 10 µM against COX-2. In the case of `CNC(=O)N1CCC(c2nc(-c3ccc(OC)cc3)c(-c3ccc(OC)cc3)s2)CC1` [Reference Example1 199, reference compound], the ED50 in the test on ddY mice (setting [2]) worked out at 34.4 mg/kg. Turning to `COc1ccc(-c2nc(C3CCNCC3)oc2-c2ccc(OC)cc2)cc1` [Reference Example 78, 4-(4,5-Bis(4-methoxyphenyl)oxazol-2-yl)piperidine, reference compound], the ED50 with ddY mice (Table 4, oral administration, comparison with similar known compound, read-out: ED50 (mg/kg) [90% confidence limit]) was above 100 mg/kg. With `COc1ccc(-c2nc(C3CCNCC3)sc2-c2ccc(OC)cc2)cc1` [Reference Example 93, 4-(4,5-Bis(4-methoxyphenyl)thiazol-2-yl)piperidine, reference compound], the ED50 in the test with ddY mice (setting [2]) is above 100 mg/kg. Same read-out and setting: with `COc1ccc(-c2cc(C3CCNCC3)nn2-c2ccc(OC)cc2)cc1` [Reference Example 103, 4-(1,5-Bis(4-methoxyphenyl)-1H-pyrazol-3-yl)piperidine, reference compound] the figure was above 100 mg/kg.

As a reminder, the IC50 is the point on the concentration scale where inhibition reaches its midpoint. A lower IC50 goes with greater potency in that assay.
